Experimental data published in patent US6727076B2 (priority 1995, dated 2004).
Entries after “also recorded” stand apart in the source; their conditions may differ. Peptide text beside a SMILES is read from it.

The compounds below were run on E. coli 287 (ATCC #11775).
Assay type: cell-based
With O=C(O)/C=C(/CC(=O)O)C(=O)O [cis-aconitic acid] the “carbon source utilization result” value was “positive/negative”. Cc1cn([C@H]2C[C@H](O)[C@@H](CO)O2)c(=O)[nH]c1=O [Thymidine] was tested, and the “carbon source utilization result” value was “positive”. With C=C(CC(=O)O)C(=O)O [itaconic acid] the “carbon source utilization result” value was “negative”. In the case of O=C(O)CCCO [γ-hydroxybutyric acid], the “carbon source utilization result” value was “negative”. For OC[C@@H](O)[C@@H](O)[C@@H](O)CO [Adonitol], the “carbon source utilization result” value was “negative”. For OC[C@H]1O[C@@H](O[C@H]2[C@H](O)[C@@H](O)[C@@H](O)O[C@@H]2CO)[C@H](O)[C@@H](O)[C@H]1O [α-D-lactose], the “carbon source utilization result” value was “positive”. In the case of CC(=O)O [Acetic acid], the “carbon source utilization result” value was “positive”. OC[C@H]1O[C@@H]2O[C@H]3[C@H](O)[C@@H](O)[C@@H](O[C@H]4[C@H](O)[C@@H](O)[C@@H](O[C@H]5[C@H](O)[C@@H](O)[C@@H](O[C@H]6[C@H](O)[C@@H](O)[C@@H](O[C@H]7[C@H](O)[C@@H](O)[C@@H](O[C@H]1[C@H](O)[C@H]2O)O[C@@H]7CO)O[C@@H]6CO)O[C@@H]5CO)O[C@@H]4CO)O[C@@H]3CO [α-cyclodextrin] was tested, and the “carbon source utilization result” value was “negative”. With C[C@H](O)[C@H](O)[C@@H](O)[C@@H](O)C=O [L-rhamnose] the “carbon source utilization result” value was “positive”. In the case of O=C(O)[C@H](O)[C@@H](O)[C@H](O)[C@H](O)CO [D-gluconic acid], the “carbon source utilization result” value was “positive”. NCCCCN [putrescine] was tested, and the “carbon source utilization result” value was “positive/negative”. In the case of O=C(O)CC(=O)O [malonic acid], the “carbon source utilization result” value was “negative”. CCCC(=O)C(=O)O [α-ketovaleric acid] was tested, and the “carbon source utilization result” value was “negative”. NCCc1ccccc1 [Phenylethyl amine] was tested, and the “carbon source utilization result” value was “positive/negative”. C[N+](C)(C)CC(O)CC(=O)[O-] (racemic) [D,L-carnitine] was tested, and the “carbon source utilization result” value was “negative”. For O=C[C@H](O)[C@@H](O)[C@H](O)[C@H](O)C(=O)O [D-glucuronic acid], the “carbon source utilization result” value was “positive”. NCC(=O)N[C@@H](CC(=O)O)C(=O)O [Glycyl-L-aspartic acid] (H-Gly-Asp-OH) was tested, and the “carbon source utilization result” value was “positive”. With O=C(O)/C=C/c1c[nH]cn1 [urocanic acid] the “carbon source utilization result” value was “negative; also recorded: equivocal; also recorded: positive”. With CC(O)C(=O)O (racemic) [D,L-lactic acid] the “carbon source utilization result” value was “positive”. CC(=O)N[C@H]1C(O)O[C@H](CO)[C@H](O)[C@@H]1O (stereo partly drawn) [N-acetyl-D-galactosamine] was tested, and the “carbon source utilization result” value was “positive”. In the case of C[C@H](N)C(N)=O [alaninamide], the “carbon source utilization result” value was “positive”. With OC[C@@H](O)[C@H](O)[C@@H](O)CO [xylitol] the “carbon source utilization result” value was “negative”. For CC(O)C(C)O (stereo not drawn) [2,3-butanediol], the “carbon source utilization result” value was “positive/negative”.

These compounds were tested on E. coli MG1655.
Assay type: cell-based
For NCCc1ccc(O)cc1 [Tyramine], the “suitability as nitrogen source (growth, purple color)” value (from here on “suitability as nitrogen source”) was “not suitable”. In the case of C[C@@H](N)c1ccccc1 [(R)-(+)-α-phenylethylamine], the “suitability as nitrogen source” value was “not suitable”. With CC(C)[C@H](N)C(=O)O [L-valine] the “suitability as nitrogen source” value was “not suitable”. NCC(=O)N[C@@H](CC(N)=O)C(=O)O [gly-asn] (H-Gly-Asn-OH) was tested, and the “suitability as nitrogen source” value was “positive”. In the case of Cc1cn([C@H]2C[C@H](O)[C@@H](CO)O2)c(=O)[nH]c1=O [Thymidine], the “suitability as nitrogen source” value was “not suitable”. With NCCc1c[nH]cn1 [histamine] the “suitability as nitrogen source” value was “not suitable”. For NCCCCCC(=O)O [ε-amino-n-caproic acid], the “suitability as nitrogen source” value was “not suitable”. In the case of N[C@H](CCC(=O)O)C(=O)O [D-glutamic acid], the “suitability as nitrogen source” value was “not suitable”. In the case of NC=O [formamide], the “suitability as nitrogen source” value was “not suitable”. In the case of C[C@H](NC(=O)CN)C(=O)O [gly-ala] (H-Gly-Ala-OH), the “suitability as nitrogen source” value was “positive”. In the case of C[C@H](N)C(=O)N[C@H](C(=O)O)[C@@H](C)O [ala-thr] (H-Ala-Thr-OH), the “suitability as nitrogen source” value was “positive”. For CC(N)=O [acetamide], the “suitability as nitrogen source” value was “not suitable”. With NCCN [ethylenediamine] the “suitability as nitrogen source” value was “not suitable”. NC(=O)NCCC[C@H](N)C(=O)O [L-citrulline] was tested, and the “suitability as nitrogen source” value was “not suitable”. In the case of CCN [ethylamine], the “suitability as nitrogen source” value was “not suitable”. In the case of CCCC(N)C(=O)O (stereo not drawn) [2-amino-valeric acid], the “suitability as nitrogen source” value was “not suitable”. In the case of CC(C)[C@@H](N)C(=O)O [D-valine], the “suitability as nitrogen source” value was “not suitable”. With NCC(=O)O [glycine] the “suitability as nitrogen source” value was “positive”. For NCCCC[C@@H](N)C(=O)O [D-lysine], the “suitability as nitrogen source” value was “not suitable”. O=c1[nH]c(=O)c2[nH]c(=O)[nH]c2[nH]1 [uric acid] was tested, and the “suitability as nitrogen source” value was “not suitable”. In the case of NCCCC[C@H](N)C(=O)O [L-lysine], the “suitability as nitrogen source” value was “not suitable”. In the case of Cc1c[nH]c(=O)[nH]c1=O [thymine], the “suitability as nitrogen source” value was “not suitable”. CCCCCCC(N)C(=O)O (racemic) [DL-α-amino-caprylic acid] was tested, and the “suitability as nitrogen source” value was “not suitable”. In the case of N[C@H]1C(O)O[C@H](CO)[C@H](O)[C@@H]1O (stereo partly drawn) [D(+)-galactosamine], the “suitability as nitrogen source” value was “weak positive”. In the case of N[C@@H](Cc1ccc(O)cc1)C(=O)O [L-tyrosine], the “suitability as nitrogen source” value was “not suitable”. For Cl.N [NH4Cl, ammonium chloride], the “suitability as nitrogen source” value was “positive”. In the case of NCCCCN [putrescine], the “suitability as nitrogen source” value was “not suitable”. O=C1NC(=O)C(=O)C(=O)N1 [alloxan] was tested, and the “suitability as nitrogen source” value was “not suitable”. For O=[N+]([O-])[O-].[K+] [potassium nitrate], the “suitability as nitrogen source” value was “not suitable”. For NCCc1ccccc1 [Phenylethyl amine], the “suitability as nitrogen source” value was “not suitable”. With NCC(=O)N[C@@H](CCC(N)=O)C(=O)O [gly-gln] (H-Gly-Gln-OH) the “suitability as nitrogen source” value was “positive”. CCCCN [n-butylamine] was tested, and the “suitability as nitrogen source” value was “not suitable”. In the case of O=c1[nH]c(=O)c2ncn([C@@H]3O[C@H](CO)[C@@H](O)[C@H]3O)c2[nH]1 [xanthosine], the “suitability as nitrogen source” value was “not suitable”. With Nc1ncnc2c1ncn2[C@@H]1O[C@H](CO)[C@@H](O)[C@H]1O [Adenosine] the “suitability as nitrogen source” value was “not suitable”. For O=C(O)CNC(=O)c1ccccc1 [hippuric acid], the “suitability as nitrogen source” value was “not suitable”. NC(=O)C[C@@H](N)C(=O)O [D-asparagine] was tested, and the “suitability as nitrogen source” value was “not suitable”. For O=C(O)/C=C/c1c[nH]cn1 [urocanic acid], the “suitability as nitrogen source” value was “not suitable”. In the case of O=c1[nH]c(=O)c2[nH]cnc2[nH]1 [xanthine], the “suitability as nitrogen source” value was “not suitable”. With C[C@H](N)C(=O)N[C@@H](CCC(N)=O)C(=O)O [ala-gln] (H-Ala-Gln-OH) the “suitability as nitrogen source” value was “positive”. For CC(O)C(N)=O (stereo not drawn) [lactamide], the “suitability as nitrogen source” value was “not suitable”. With CC(=O)N[C@H]1C(O)O[C@H](CO)[C@H](O)[C@@H]1O (stereo partly drawn) [N-acetyl-D-galactosamine] the “suitability as nitrogen source” value was “not suitable”. In the case of N[C@H]1C(O)O[C@H](CO)[C@@H](O)[C@@H]1O (stereo partly drawn) [D(+)-glucosamine], the “suitability as nitrogen source” value was “positive”. In the case of NC(=O)[C@@H](O)[C@@H](O)[C@H](O)[C@@H](O)C=O [Glucuronamide], the “suitability as nitrogen source” value was “not suitable”. For CSCC[C@H](NC(=O)CN)C(=O)O [gly-met], the “suitability as nitrogen source” value was “positive”. Nc1ncnc2nc[nH]c12 [adenine] was tested, and the “suitability as nitrogen source” value was “not suitable”. With N[C@@H](CCO)C(=O)O [L-homoserine] the “suitability as nitrogen source” value was “not suitable”. CC(=O)NCC(=O)O [N-acetyl-glycine] was tested, and the “suitability as nitrogen source” value was “not suitable”. CSCC[C@H](N)C(=O)N[C@@H](C)C(=O)O [met-ala] (H-Met-Ala-OH) was tested, and the “suitability as nitrogen source” value was “not suitable”. For O=NO [sodium nitrite], the “suitability as nitrogen source” value was “not suitable”. NC(N)=O [urea] was tested, and the “suitability as nitrogen source” value was “not suitable”. N=C(N)NCCCCN [agmatine] was tested, and the “suitability as nitrogen source” value was “not suitable”. In the case of CC(=O)N[C@@H]1C(O)O[C@H](CO)[C@@H](O)[C@@H]1O (stereo partly drawn) [N-acetyl-D-mannosamine], the “suitability as nitrogen source” value was “not suitable”. With CCC(N)C(=O)O (racemic) [DL-α-amino-n-butyric acid] the “suitability as nitrogen source” value was “not suitable”. With CC[C@H](C)[C@H](N)C(=O)O [L-isoleucine] the “suitability as nitrogen source” value was “not suitable”. With C[C@H](N)C(=O)N[C@@H](Cc1cnc[nH]1)C(=O)O [ala-his] (H-Ala-His-OH) the “suitability as nitrogen source” value was “not suitable”. CCCCCN [n-amylamine] was tested, and the “suitability as nitrogen source” value was “not suitable”. N=C(N)NCCC[C@H](N)C(=O)O [L-arginine] was tested, and the “suitability as nitrogen source” value was “positive”. For N[C@@H]1C(O)O[C@H](CO)[C@@H](O)[C@@H]1O (stereo partly drawn) [D-mannosamine], the “suitability as nitrogen source” value was “weak positive”.
